The source of these data is patent US8530475B2, “Bridged aryl piperazines derivatives useful for the treatment of CNS, GI-urinary and reproductive disorders” (Janssen Pharmaceutica NV, priority 2006, dated 2013).

Assay [1] has as its target T1, human 5HT1A receptor (Homo sapiens, UniProt P08908).
T1 construct: purchased Perkin Elmer; host or cells: HEK293 cells, stably transfected (membranes)
T1 sequence (P08908 1-422): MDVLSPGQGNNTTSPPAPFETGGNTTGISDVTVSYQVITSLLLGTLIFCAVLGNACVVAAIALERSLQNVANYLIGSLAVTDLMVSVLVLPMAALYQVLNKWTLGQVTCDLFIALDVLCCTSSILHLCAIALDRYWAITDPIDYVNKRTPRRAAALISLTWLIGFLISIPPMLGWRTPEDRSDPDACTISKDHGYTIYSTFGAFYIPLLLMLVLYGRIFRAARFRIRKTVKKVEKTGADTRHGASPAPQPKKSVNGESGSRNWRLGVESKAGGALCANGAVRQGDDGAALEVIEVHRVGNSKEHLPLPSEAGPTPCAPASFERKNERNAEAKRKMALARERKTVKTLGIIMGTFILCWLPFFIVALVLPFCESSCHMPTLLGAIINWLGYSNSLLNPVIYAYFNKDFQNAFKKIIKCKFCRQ
Nature of the assay: [35S]GTPγS binding for 5-HT1A receptor inhibition (antagonist mode). Type of assay: biochemical. The settings on record: Example 78, HEK293 membranes, antagonist mode with serotonin 100 nM, <5 = not active at up to 10 μM; for IC50: read-out: h5HT1A Antagonist pIC50 (converted). As for the experimental part: Compounds showing affinity at the 5-HT1A receptor were tested for functional agonism and antagonism in a [^35S]GTPγS (guanine triphosphate (non-hydrolysable, labelled with ^35S) binding assay on membranes of HEK293 cells permanently transfected with human 5HT1A receptor (Perkin Elmer, USA).
Frozen membranes were thawed, briefly homogenized and were diluted in incubation buffer, 100 mM NaCl, 0.3 mM MgCl2 and 10 μM guanine diphosphate (GDP), pH 7.4-7.5) supplemented with 10 μg/ml saponin. Assay mixtures contained 10 μg of membrane protein and test compound, buffer, or control agonist (serotonin, 10 μM). For the antagonistic assay, control agonist was present in all wells containing compound at a sub-maximal concentration (serotonin, 100 nM). After 20 minutes pre-incubation at 37° C., [^35S]GTPγS was added to a final concentration of 0.25 nM, briefly shaken and further incubated for another 20 minutes. Reactions were terminated by rapid vacuum filtration through GF/B unifilter plates using a Packard Harvester. Filters were washed three times with wash buffer (10 mM NaH2PO4, 10 mM Na2HPO4, pH 7.4), dried overnight and bound counts were measured in a Topcount Scintillation Counter in the presence of Microscint O. % Specific Binding was calculated and curves were plotted with help of in house software where pIC50 values were determined and Kb values were calculated.

The target of assay [2] is T1, human 5HT1A receptor. Nature of the assay: Radioligand binding to the 5-HT1A receptor, [3H]8-OH-DPAT. The settings on record: Example 77, membranes of HEK293 cells, [3H]8-OH-DPAT 0.5 nM, <5 = not active at up to 10 μM; for IC50: read-out: h5HT1A pIC50 (converted). How it is done:
Frozen membranes of HEK293 cells, stably-transfected with human 5-HT1A receptor (Perkin Elmer) were thawed on ice, briefly homogenised with an Ultra Turrax homogeniser and then suspended in Tris-HCl buffer (50 mM pH 7.7) supplemented with CaCl2 (4 mM) at an appropriate pre-determined protein concentration (5-10 μg protein per incubation mixture). Together with [^3H]8-OH-DPAT (0.5 nM final concentration; Perkin Elmer, USA), the membrane suspension was added to the test compound and incubated (30 min at 37° C.) in a total volume of 400 μl. Non-specific binding was determined in the presence of Spiroxatrine (1 μM). Free radioligand was separated from the radioligand-receptor complex by means of rapid vacuum filtration over GF/B unifilter plates with a Packard Harvester Filtration Unit. Unifilter plates were washed with ice cold Tris-HCl buffer (50 mM, pH 8.0) and then dried overnight. Bound counts were measured in a Topcount Scintillation Counter in the presence of Microscint O.

For a further assay, the target named is T2, human 5-HTT (Homo sapiens, UniProt P31645).
T2 construct: purchased Perkin-Elmer, USA; host or cells: HEK293 cells, stably transfected (membranes)
Nature of the assay: Radioligand binding to 5-HTT (serotonin transporter, SERT), [3H]Paroxetine. The settings on record: membranes of HEK293 cells, [3H]Paroxetine 0.5 nM, <5 = not active at up to 10 μM. How it is done:
For 5-HTT binding, frozen membranes of HEK293 cells stably-transfected with human 5-HTT (Perkin-Elmer, USA) were thawed on ice, briefly homogenised and resuspended in Tris-HCl buffer (50 mM, pH 7.4) supplemented with NaCl (120 mM) and KCl (5 mM) at a concentration of 50 μg protein per incubation mixture. The membrane suspension was added to the test compound together with [^3H]Paroxetine (0.5 nM) in a total volume of 250 μl and incubated (60 min, 25° C.). Non-specific binding was determined in the presence of imipramine (1 μM). Filtration was done over pre-soaked GF/B unifilters (0.01% PEI) and washed as above with the Tris-HCl salt buffer used for the incubation. Specific binding was calculated and sigmoidal curves were plotted by an internally-developed software program based on S-plus software. Ki values were calculated using the Cheng-Prusoff equation.

[3] abbreviates: Example 77, read-out: h5HTT pIC50 (converted).

“And” between values parts separate entries of the source, which are not always exact repeats. Equal entries are not always repeated. Where two headings read alike, the source gives them in different places.

T2 sequence (P31645 whole entry): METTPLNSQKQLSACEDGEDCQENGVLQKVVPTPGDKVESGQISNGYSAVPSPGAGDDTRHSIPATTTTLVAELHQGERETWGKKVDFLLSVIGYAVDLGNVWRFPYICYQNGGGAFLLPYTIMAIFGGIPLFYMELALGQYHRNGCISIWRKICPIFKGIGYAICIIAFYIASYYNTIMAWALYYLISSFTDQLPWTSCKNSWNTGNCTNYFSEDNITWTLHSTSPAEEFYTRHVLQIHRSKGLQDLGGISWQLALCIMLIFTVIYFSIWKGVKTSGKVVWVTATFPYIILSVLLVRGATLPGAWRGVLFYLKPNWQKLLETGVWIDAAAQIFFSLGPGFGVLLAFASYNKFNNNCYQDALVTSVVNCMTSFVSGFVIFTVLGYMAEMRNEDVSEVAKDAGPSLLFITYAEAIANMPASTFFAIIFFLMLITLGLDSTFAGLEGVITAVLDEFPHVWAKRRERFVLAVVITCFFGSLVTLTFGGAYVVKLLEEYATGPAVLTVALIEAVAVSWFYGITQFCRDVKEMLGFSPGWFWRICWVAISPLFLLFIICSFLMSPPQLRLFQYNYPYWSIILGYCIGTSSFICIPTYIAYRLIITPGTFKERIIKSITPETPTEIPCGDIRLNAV

`Cc1cc2c(OC[C@@H](O)CN3C[C@@H]4C/C=C\C[C@H]3CN4c3cccc4ncccc34)cccc2[nH]1` [ID No. 136]: the IC50 at human 5HT1A receptor [1] was 309 nM.
As for `Cc1cc2c(OCCCN3C[C@@H]4C/C=C\C[C@H]3CN4c3ccc4ccccc4c3)cccc2[nH]1` [ID No. 138, 7-[3-(2-Methyl-1H-indol-4-yloxy)-propyl]-9-naphthalen-2-yl-7,9-diaza-bicyclo[4.2.2]dec-3-ene], the results for the IC50 at human 5HT1A receptor [2], on human 5-HTT (setting [3]) and on human 5HT1A receptor [1] were 282 nM, 28.2 nM and 11000 nM, respectively.
Turning to `C#CCN1C[C@@H]2C/C=C\C[C@H]1CN2c1ccc2ccccc2c1` [compound 41], the IC50 at human 5HT1A receptor [2] is > 10000 nM; on human 5-HTT (setting [3]) it was 85.1 nM.
With `Cc1cc2c(OC[C@H](O)CN3C[C@H]4C/C=C\C[C@@H]3CN4c3ccc4ccccc4c3)cccc2[nH]1` [compound 55], the “h5HT1A pIC50” value at human 5HT1A receptor [2] is reported as 6.88. For the same compound, the “h5HTT pIC50” value at human 5-HTT (Example 77) is 6.86. The “h5HT1A Antagonist pIC50” value at human 5HT1A receptor [1] is given as <5.
With `C1=C\C[C@H]2CN[C@@H](C/1)CN2c1cccc2ccccc12` [compound 119], the IC50 at human 5HT1A receptor [2] is > 10000 nM; on human 5-HTT (h5HTT pIC50, Example 77) it was 70.8 nM.
For `COC(=O)c1cc2c(OC[C@@H](O)CN3C[C@@H]4C/C=C\C[C@H]3CN4c3ccc4ccccc4c3)cccc2[nH]1` [compound 126], the values for the IC50 at human 5HT1A receptor [2], at human 5-HTT (setting [3]) and at human 5HT1A receptor [1] were 50.1 nM, 24 nM and > 10000 nM, respectively.
On to `COC(=O)c1cc2c(OC[C@@H](O)CN3C[C@@H]4C/C=C\C[C@H]3CN4c3ccc4ccccc4c3)ccc(C)c2[nH]1` [compound 127], for which the IC50 was 363 nM at human 5HT1A receptor [2], 39.8 nM on human 5-HTT (setting [3]) and > 10000 nM at human 5HT1A receptor [1].
For the compound `COC(=O)c1cc2c(OC[C@@H](O)CN3C[C@@H]4C/C=C\C[C@H]3CN4c3ccc4ccccc4c3)ccc(Cl)c2[nH]1` [compound 128], the values for the IC50 on human 5HT1A receptor [2], at human 5-HTT (setting [3]) and at human 5HT1A receptor [1] were 562 nM, 30.2 nM and > 10000 nM, respectively.
For the compound `Cc1cc2c(OC[C@@H](O)CN3C[C@@H]4C/C=C\C[C@H]3CN4c3ccc(Cl)c(Cl)c3)cccc2[nH]1` [compound 135], the IC50 at human 5HT1A receptor [2] was 97.7 nM; at human 5-HTT (setting [3]) it was 102 nM; at human 5HT1A receptor [1], 813 nM.
Turning to `C1=C\C[C@H]2CN[C@@H](C/1)CN2c1cccc2ncccc12` [compound 137], the IC50 at human 5HT1A receptor [2] was 2340 nM; at human 5-HTT (setting [3]), 676 nM; on human 5HT1A receptor [1], > 10000 nM.
For `COc1cc2c(cc1OC)C1=NO[C@@H](CN3C[C@@H]4C/C=C\C[C@H]3CN4c3ccc4ccccc4c3)C1CO2` (stereo partly drawn) [compound 140], the IC50 is > 10000 nM at human 5HT1A receptor [2] and 741 nM at human 5-HTT (setting [3]).
In the same order, the values of `COc1cc2c(cc1OC)C1=NO[C@H](CN3C[C@@H]4C/C=C\C[C@H]3CN4c3ccc4ccccc4c3)C1CO2` (stereo partly drawn) [compound 141] are > 10000 nM and 724 nM.
For `C1=C\C[C@H]2CN(CCNc3ccccn3)[C@@H](C/1)CN2c1ccc2ccccc2c1` [compound 142], the IC50 is 9770 nM at human 5HT1A receptor [2], 102 nM on human 5-HTT (setting [3]) and > 10000 nM at human 5HT1A receptor [1].
On to `COC(=O)c1cc2c(OC[C@@H](O)CN3C[C@@H]4C/C=C\C[C@H]3CN4c3ccc4ccccc4c3)cc(OC)cc2[nH]1` [compound 143], for which the IC50 is 240 nM on human 5HT1A receptor [2], 174 nM on human 5-HTT (setting [3]) and > 10000 nM at human 5HT1A receptor [1].
With `Cc1cc2c(OC[C@@H](O)CN3C[C@@H]4C/C=C\C[C@H]3CN4c3ccc4ccccc4c3)c(F)ccc2[nH]1` [compound 148], the IC50 at human 5HT1A receptor [2] was 138 nM; on human 5-HTT (setting [3]), 53.7 nM; at human 5HT1A receptor [1], > 10000 nM.
Take `C1=C\C[C@H]2CN(c3ccc4ccccc4c3)[C@@H](C/1)CN2C1Cc2ccccc2C1` [compound 150]: the IC50 was > 10000 nM at human 5HT1A receptor [2] and 1910 nM at human 5-HTT (setting [3]).
Take `Cc1cc2c(OC[C@H](O)CN3CC4CC=CCC3CN4c3ccc4ccccc4c3)cccc2[nH]1` (stereo partly drawn) [compound 153]: the IC50 on human 5HT1A receptor [2] was 933 nM; on human 5-HTT (setting [3]) it was 57.5 nM; at human 5HT1A receptor [1] it was > 10000 nM.
The matching figures for `Cc1cc2c(OC[C@@H](O)CN3C[C@@H]4C/C=C\C[C@H]3CN4c3ccc4ccccc4c3)c(C)ccc2[nH]1` [compound 154]: 724 nM, 55 nM and > 10000 nM.
`Cc1cc2c(OC[C@@H](O)CN3CC4CC=CCC3CN4c3ccc4ccccc4c3)cccc2[nH]1` (stereo partly drawn) [compound 155]: the IC50 on human 5HT1A receptor [2] was 52.5 nM and 115 nM; on human 5-HTT (setting [3]), 110 nM and 214 nM; on human 5HT1A receptor [1] it was > 10000 nM and 6310 nM.
With `Cn1ccc2c(OC[C@@H](O)CN3C[C@H]4C/C=C\C[C@@H]3CN4c3ccc4ccccc4c3)cccc21` [compound 156], the results for the IC50 at human 5HT1A receptor [2], at human 5-HTT (setting [3]) and at human 5HT1A receptor [1] were > 10000 nM, 29.5 nM and > 10000 nM, respectively.
Take `Cc1cc2c(OC[C@@H](O)CN3C[C@@H]4C/C=C\C[C@H]3CN4c3cccc4ncccc34)cccc2[nH]1` [compound 157]: the IC50 on human 5HT1A receptor [1] was 759 nM.
`Cc1cc2c(OC[C@@H](O)CN3C[C@@H]4C/C=C\C[C@H]3CN4c3cnc4ccccc4c3)cccc2[nH]1` [compound 158]: the IC50 at human 5HT1A receptor [2] was 126 nM; at human 5-HTT (setting [3]) it was 251 nM; on human 5HT1A receptor [1] it was 1150 nM.
Regarding `Cc1cc2c(OC[C@@H](O)CN3C[C@@H]4C/C=C\C[C@H]3CN4c3ccc4c(c3)OCCO4)cccc2[nH]1` [compound 159], the IC50 was 10.7 nM on human 5HT1A receptor [2], 759 nM at human 5-HTT (setting [3]) and 47.9 nM at human 5HT1A receptor [1].
In the case of `O[C@H](COc1cccc2ncccc12)CN1C[C@@H]2C/C=C\C[C@H]1CN2c1ccc2ccccc2c1` [compound 160], the IC50 was 355 nM at human 5HT1A receptor [2], 63.1 nM at human 5-HTT (setting [3]) and 851 nM on human 5HT1A receptor [1].
